Patent US20150157036A1, “Processed Cheese With Natural Antibacterial And Antimycotic Components And Method Of Manufacturing” (KRAFT FOODS GROUP BRANDS LLC, priority 2013, published 2015)
Where “and” joins values, the source holds several entries; their conditions need not be identical. Equal entries are not always repeated.

How the values were obtained:
[1] = Detectable level of natamycin in processed cheese by HPLC during storage; type: physicochemical; settings: for detectable natamycin concentration in the product: by six months, stored at 45° F.; for natamycin in processed cheese, on average: three days after producing the processed cheese, four samples
Method: Natamycin (Natamax SF from Danisco) was incorporated into processed cheese (prior to the cooking step) at 15 ppm. Cultured dairy component containing nisin was incorporated into all products at 8 percent based on the total weight of the processed cheese. Samples of the processed cheese were inoculated at 100 cfu/g and 500 cfu/g. The detectable level of natamycin was determined by HPLC.

[2] = test system: mold cocktail of Phoma spp., Geotrichum spp., Cladosporium spp., and Penicillium spp.; assay: Mold challenge study of processed cheese slices inoculated with a mold cocktail; type: cell-based
Method: In some approaches, the processed cheese includes an amount of natural antimycotic effective to prevent mold growth for at least about three months, in another aspect at least about four months, in another aspect at least about five months, in another aspect at least about six months, and in yet another aspect at least about seven months, when the processed cheese is stored at about 1 to about 10° C. The efficacy of the natamycin in the processed cheese product can be determined by conducting a mold challenge study, where samples of the processed cheese are inoculated with a known quantity of mold spores, such as 90 cfu/g or 500 cfu/g, and inspecting the samples for visible mold growth during storage at 40 to 45° F.
Natamycin (Natamax SF from Danisco) was incorporated into processed cheese (prior to the cooking step) at concentrations of 7 ppm and 15 ppm. The processed cheese was then submitted to a mold challenge study. The processed cheese was inoculated with a mold cocktail (spores in liquid media) of Phoma spp., Geotrichum spp., Cladosporium spp., and Penicillium spp. (which represent common types of mold) at 90 spores per 19 gram slice. The samples are inoculated by spreading the cocktail on top of cheese slices. A control was not inoculated. […] The detectable level of natamycin was determined by HPLC. […]

mold = assay: Shelf life of processed cheese slices, visible mold during storage; type: cell-based; settings: processed cheese slices containing about 4.8 ppm natamycin; stored at 45° F.; control without natamycin showed visible mold at three months
Description: Processed cheese slices were produced containing about 4.8 ppm natamycin (Natamax SF from Danisco).

[3] = average of samples, dosage level 15 ppm, storage at 45° F.
[4] = dosage level 15 ppm before cooking, 8 percent cultured dairy component containing nisin, storage at 45° F., HPLC, single samples

detectable natamycin concentration in the product ([1]; 7 ppm sample, HPLC): 0.62 ppm
detectable natamycin concentration in the product ([1]; 15 ppm sample, HPLC): 4.89 ppm
Detected Natamycin Concentration (ppm) after Four Months, average [1, 3]: Average = 3.39 ppm
Detected Natamycin Concentration (ppm) after One Week, average [1, 3]: Average = 4.68 ppm
Detected Natamycin Concentration (ppm) after Two Months, average [1, 3]: Average = 5.93 ppm
Detected Natamycin Concentration (ppm) after One Week [1, 4]: 4.61 ppm and 4.63 ppm and 4.80 ppm
natamycin in processed cheese, on average ([1]; starting with 10 ppm, 8 percent cultured dairy component containing nisin): 2.8 ppm
natamycin in processed cheese, on average ([1]; starting with 15 ppm, 8 percent cultured dairy component containing nisin): 4.9 ppm
Structure (SMILES): C[C@@H]1C/C=C/C=C/C=C/C=C/[C@H](O[C@@H]2O[C@H](C)[C@@H](O)[C@H](N)[C@@H]2O)C[C@@H]2O[C@](O)(C[C@@H](O)C[C@H]3O[C@@H]3/C=C/C(=O)O1)C[C@H](O)[C@H]2C(=O)O [Natamycin, natamycin]
Detected Natamycin Concentration (ppm) after Four Months [1, 4]: 3.07 ppm and 3.39 ppm and 3.64 ppm and 2.97 ppm and 3.37 ppm and 3.28 ppm and 3.14 ppm
Detected Natamycin Concentration (ppm) after Three Months [1, 4]: 6.87 ppm and 6.34 ppm and 7.46 ppm and 6.13 ppm and 6.84 ppm and 6.78 ppm and 7.36 ppm
Detected Natamycin Concentration (ppm) after Two Months [1, 4]: 6.73 ppm and 4.62 ppm and 6.32 ppm and 5.34 ppm and 5.91 ppm and 6.81 ppm and 5.67 ppm
change of the detectable quantity of natamycin during storage ([1]; processed cheese with natamycin and cultured dairy component, HPLC): increase in months 2 and 3 of storage and then decrease in month 4
shelf life relative to control ([2]; 10 ppm and 15 ppm natamycin plus 8 percent cultured dairy component containing nisin, inoculated with 500 cfu/g or 9,500 spores per slice): almost double that of control
extension of shelf life versus control that lacked mold inhibitor ([2]; processed cheese with 7 ppm or 15 ppm natamycin added before cooking, 90 spores per 19 gram slice, stored at 45° F.): at least six months longer than a control
visible mold at five months of shelf life (mold): no visible mold
